In article PMC11767673 (2024):

Assays:
[1] = system: OR7 aptamer (DNA, aptamer) CAAGGAAAATCCTTCAACGAAGTGGG; assay: transmembrane electrochemical impedance spectroscopy (potentiostat and impedance reader); conditions: 137 mM NaCl, 2.7 mM KCl, 5 mM MgCl2; PBS pH 7.4, 3% DMSO, room temperature; aptamer immobilised on membrane; control, highest concentration not given
[2] = system: OR7 aptamer (DNA, aptamer) CAAGGAAAATCCTTCAACGAAGTGGG; assay: transmembrane electrochemical impedance spectroscopy (ADuCM350 impedance reader), Langmuir fit; conditions: 137 mM NaCl, 2.7 mM KCl, 5 mM MgCl2; PBS pH 7.4, 3% DMSO, room temperature; aptamer immobilised on membrane
[3] = system: OR7 aptamer (DNA, aptamer) CAAGGAAAATCCTTCAACGAAGTGGG; assay: transmembrane electrochemical impedance spectroscopy (commercial potentiostat), Langmuir fit; conditions: 137 mM NaCl, 2.7 mM KCl, 5 mM MgCl2; PBS pH 7.4, 3% DMSO, room temperature; aptamer immobilised on membrane

Row | SMILES | binding [1] | KD [2] [nM] | KD [3] [nM]
1 | CCN(CC)CCCC(C)Nc1ccnc2cc(Cl)ccc12 (stereo not drawn) | no |  | 
2 | CCN(CC)Cc1cc(Nc2ccnc3cc(Cl)ccc23)ccc1O |  | 4 | 2
